The record followed here is patent US11098027B2, “Therapeutic heterocyclic compounds” (Gilead Sciences, Inc., priority 2018, dated 2021).

This assay has as its target T1, IDO1 (Homo sapiens, UniProt P14902).
T1 construct: HeLa cells were treated with a test compound in the presence of IFNγ, which induces IDO1 expression; host or cells: H1-HeLa cells, IDO1 induced with IFNγ
As to the kind of experiment: Cell-based (HeLa) assay for measurement of IDO1 inhibition (kynurenine levels in supernatant). To be noted: H1-HeLa cells, IDO1 induced with IFNγ, 48 hour incubation, kynurenine read by absorbance at 480 nm; geometric mean of a minimum of four determinations. As for the experimental part: Example B-1. Cell-Based (HeLa) Assay for Measurement of IDO1 Inhibition
To measure IDO1 inhibition in tissue culture, HeLa cells were treated with a test compound in the presence of IFNγ, which induces IDO1 expression. Following incubation, cell supernatants were assayed for kynurenine levels, an indicator of IDO1 activity.
The following day, the test compounds were added in DMSO (0.5% final) at various concentrations, and IDO1 was inducibly expressed by the addition of 50 uL/well of 50 ng/mL of INFγ (Peprotech #300-02) in cell plating media. As a positive control, 50 uL of the cell plating media without IFNγ was added to several wells. Following a 48 hour incubation, the plates were spun down at 1,200 RPM for 5 min at 10° C. 65 μL/well of the supernatant was then transferred to new 384-well plates (Thermo #262160) that contained 10 uL/well of 30% TCA (Sigma # TO699), and the plates were sealed and incubated at 60° C. for 30 min. The plates were then centrifuged for 15 min at 2,000 RPM at 10° C. 40 μL/well of the supernatant was transferred to new 384-well plates (Thermo #262160) and was reacted with 40 μL/well of 2% (w/v) p-dimethlyaminobenzaldehyde (Sigma #156417) in glacial acetic acid (Sigma #A6283). The reaction was incubated at room temperature for 10 min and absorbance at 480 nm was read using a PerkinElmer Envision plate reader.
Data in Table 1 were normalized based on positive (−IFNγ) and negative (+IFNγ) controls and EC50 values were calculated from the fit of the dose—response curves to a four-parameter equation. All EC50 values represent geometric mean values of a minimum of four determinations. These assays generally produced results within 2-fold of the reported mean

T1 sequence (P14902 whole entry): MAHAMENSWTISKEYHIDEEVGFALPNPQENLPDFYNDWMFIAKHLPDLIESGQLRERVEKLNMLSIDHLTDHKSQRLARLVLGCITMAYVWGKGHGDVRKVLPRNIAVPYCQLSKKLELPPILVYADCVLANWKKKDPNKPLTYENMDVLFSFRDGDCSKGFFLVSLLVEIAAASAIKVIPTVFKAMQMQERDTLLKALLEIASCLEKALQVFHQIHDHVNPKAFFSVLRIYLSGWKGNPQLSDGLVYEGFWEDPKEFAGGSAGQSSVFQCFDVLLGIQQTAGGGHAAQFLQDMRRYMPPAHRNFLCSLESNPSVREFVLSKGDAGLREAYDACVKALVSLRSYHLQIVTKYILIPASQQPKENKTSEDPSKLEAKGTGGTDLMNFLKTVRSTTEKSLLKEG

A word on the EC50: it is the midpoint of the concentration-response curve. Read a low EC50 as a more potent agent. `CC1(C)C(=O)N(c2cn[nH]c2)c2cccc(-c3ccc(C(F)(F)F)c(C(=O)Nc4ccc(F)cc4)c3)c21` [Example 18, 5-(3,3-dimethyl-2-oxo-1-(1H-pyrazol-4-yl)indolin-4-yl)-N-(4-fluorophenyl)-2-(trifluoromethyl)benzamide] had an EC50 of 0.016 µM.
For `Cc1ccc(-c2cccc3c2C(C)(C)C(=O)N3c2ccccn2)cc1C(=O)Nc1ccc(F)cc1` [Example 10, 5-(3,3-dimethyl-2-oxo-1-(pyridin-2-yl)indolin-4-yl)-N-(4-fluorophenyl)-2-methylbenzamide] the value was 0.034 µM.
Consider `CC1(C)C(=O)N(c2ncccn2)c2cccc(-c3ccc(C(F)(F)F)c(C(=O)Nc4ccc(F)c(Br)c4)c3)c21` [Example 31, N-(3-bromo-4-fluorophenyl)-5-(3,3-dimethyl-2-oxo-1-(pyrimidin-2-yl)indolin-4-yl)-2-(trifluoromethyl)benzamide], for which the response was half-maximal at 0.057 µM (EC50).
For `CC1(C)C(=O)N(c2ncc[nH]2)c2cccc(-c3ccc(C(F)(F)F)c(C(=O)Nc4ccc(F)cc4)c3)c21` [Example 40, 5-(1-(1H-imidazol-2-yl)-3,3-dimethyl-2-oxoindolin-4-yl)-N-(4-fluorophenyl)-2-(trifluoromethyl)benzamide] the value was 0.031 µM.
For `CC1(C)C(=O)N(c2cccnc2)c2cccc(-c3ccc(C(F)(F)F)c(C(=O)Nc4ccc(F)cc4)c3)c21` [Example 7, 5-(3,3-dimethyl-2-oxo-1-(pyridin-3-yl)indolin-4-yl)-N-(4-fluorophenyl)-2-(trifluoromethyl)benzamide] the value was 0.019 µM; for `CC1(C)C(=O)N(c2cccnc2)c2nccc(-c3ccc(C(F)(F)F)c(C(=O)Nc4ccc(C#N)cn4)c3)c21` [Example 19, N-(5-cyanopyridin-2-yl)-5-(3,3-dimethyl-2-oxo-1-(pyridin-3-yl)-2,3-dihydro-1H-pyrrolo[2,3-b]pyridin-4-yl)-2-(trifluoromethyl)benzamide], 0.033 µM; for `O=C(Nc1ccc(F)cc1)c1cc(-c2cccc3c2[nH]c(=O)n3-c2ncccn2)ccc1C(F)(F)F` [Example 29, N-(4-fluorophenyl)-5-(2-oxo-1-(pyrimidin-2-yl)-2,3-dihydro-1H-benzo[d]imidazol-4-yl)-2-(trifluoromethyl)benzamide], 0.179 µM.
For `CC1(C)C(=O)N(c2ncccn2)c2nccc(-c3ccc(C(F)(F)F)c(C(=O)Nc4ccc(F)c(F)c4)c3)c21` [Example 50, N-(3,4-difluorophenyl)-5-(3,3-dimethyl-2-oxo-1-(pyrimidin-2-yl)-2,3-dihydro-1H-pyrrolo[2,3-b]pyridin-4-yl)-2-(trifluoromethyl)benzamide] the value was 0.05 µM.
Turning to `CC1(C)C(=O)N(c2ncccn2)c2cccc(-c3ccc(C(F)(F)F)c(C(=O)Nc4ccccc4)c3)c21` [Example 37, 5-(3,3-dimethyl-2-oxo-1-(pyrimidin-2-yl)indolin-4-yl)-N-phenyl-2-(trifluoromethyl)benzamide], the midpoint of the response, the EC50, lay at 0.028 µM.
Under `CC1(C)C(=O)N(c2ncccn2)c2cccc(-c3cnc(C(F)(F)F)c(C(=O)Nc4ccc(F)cc4)c3)c21` [Example 35, 5-(3,3-dimethyl-2-oxo-1-(pyrimidin-2-yl)indolin-4-yl)-N-(4-fluorophenyl)-2-(trifluoromethyl)nicotinamide] stands 0.017 µM.
For `CC1(C)C(=O)N(c2cccnc2)c2cccc(-c3ccc(C(F)(F)F)c(-c4nc5cc(F)ccc5[nH]4)c3)c21` [Example 56, 4-(3-(5-fluoro-1H-benzo[d]imidazol-2-yl)-4-(trifluoromethyl)phenyl)-3,3-dimethyl-1-(pyridin-3-yl)indolin-2-one] the value was 3.03 µM.
On to `CC1(C)C(=O)N(c2cccnc2)c2cccc(-c3cnc(C(F)(F)F)c(C(=O)Nc4ccccc4)c3)c21` [Example 58, 5-(3,3-dimethyl-2-oxo-1-(pyridin-3-yl)indolin-4-yl)-N-phenyl-2-(trifluoromethyl)nicotinamide], for which it took 0.053 µM to reach a half-maximal effect (EC50).
`CC1(C)C(=O)N(c2ccccn2)c2cccc(-c3ccc(C(F)(F)F)c(C(=O)Nc4ccc(F)cc4)c3)c21` [Example 2, 5-(3,3-dimethyl-2-oxo-1-(pyridin-2-yl)indolin-4-yl)-N-(4-fluorophenyl)-2-(trifluoromethyl)benzamide]: the EC50 is 0.011 µM.
In the case of `CC1(C)C(=O)N(c2ncccn2)c2cccc(-c3ccc(C(F)(F)F)c(C(=O)Nc4ccncc4)c3)c21` [Example 26, 5-(3,3-dimethyl-2-oxo-1-(pyrimidin-2-yl)indolin-4-yl)-N-(pyridin-4-yl)-2-(trifluoromethyl)benzamide], a half-maximal response (EC50) required 0.044 µM.
`O=C(Nc1ccc(F)cc1)c1cc(-c2cccc3c2C2(CCC2)C(=O)N3c2ncccn2)ccc1C(F)(F)F` [Example 33, N-(4-fluorophenyl)-5-(2′-oxo-1′-(pyrimidin-2-yl)spiro[cyclobutane-1,3′-indolin]-4′-yl)-2-(trifluoromethyl)benzamide] had an EC50 of 0.092 µM.
For `CC1(C)Oc2c(-c3ccc(C(F)(F)F)c(C(=O)Nc4ccc(F)cc4)c3)cccc2N(c2ncccn2)C1=O` [Example 54, 5-(2,2-dimethyl-3-oxo-4-(pyrimidin-2-yl)-3,4-dihydro-2H-benzo[b][1,4]oxazin-8-yl)-N-(4-fluorophenyl)-2-(trifluoromethyl)benzamide] the value was 1.34 µM.
For `CC1(C)C(=O)N(c2ncccn2)c2cccc(-c3ccc(C(F)(F)F)c(C(=O)Nc4ccc(F)cc4)c3)c21` [Compound 1, 5-(3,3-dimethyl-2-oxo-1-(pyrimidin-2-yl)indolin-4-yl)-N-(4-fluorophenyl)-2-(trifluoromethyl)benzamide] the value was 0.01 µM; for `CC1(C)C(=O)N(c2ccccn2)c2nccc(-c3ccc(C(F)(F)F)c(C(=O)Nc4ccc(F)cc4)c3)c21` [Example 17, 5-(3,3-dimethyl-2-oxo-1-(pyridin-2-yl)-2,3-dihydro-1H-pyrrolo[2,3-b]pyridin-4-yl)-N-(4-fluorophenyl)-2-(trifluoromethyl)benzamide], 0.013 µM; for `CC1(C)C(=O)N(Cc2ncccn2)c2cccc(-c3ccc(C(F)(F)F)c(C(=O)Nc4ccc(F)cc4)c3)c21` [Example 16, 5-(3,3-dimethyl-2-oxo-1-(pyrimidin-2-ylmethyl)indolin-4-yl)-N-(4-fluorophenyl)-2-(trifluoromethyl)benzamide], 0.81 µM.
`Cc1ccc(-c2cccc3c2C(C)(C)C(=O)N3c2ncccn2)c(F)c1C(=O)Nc1ccc(F)cc1` [Example 45, 3-(3,3-dimethyl-2-oxo-1-(pyrimidin-2-yl)indolin-4-yl)-2-fluoro-N-(4-fluorophenyl)-6-methylbenzamide] registered an EC50 of 0.032 µM.
For the compound `CC1(C)C(=O)N(c2ccncn2)c2cccc(-c3cnc(C(F)(F)F)c(C(=O)Nc4ccc(F)c(F)c4)c3)c21` [Example 51, N-(3,4-difluorophenyl)-5-(3,3-dimethyl-2-oxo-1-(pyrimidin-4-yl)indolin-4-yl)-2-(trifluoromethyl)nicotinamide], the EC50 came to 0.041 µM.
For `Cc1ccc(-c2cccc3c2oc(=O)n3-c2cccc(F)c2F)cc1C(=O)Nc1ccc(F)cc1` [Example 39, 5-(3-(2,3-difluorophenyl)-2-oxo-2,3-dihydrobenzo[d]oxazol-7-yl)-N-(4-fluorophenyl)-2-methylbenzamide] the value was 0.047 µM.
`CC1(C)C(=O)N(c2cccnc2)c2nccc(-c3ccc(C(F)(F)F)c(C(=O)Nc4ccc(F)c(F)c4)c3)c21` [Example 32, N-(3,4-difluorophenyl)-5-(3,3-dimethyl-2-oxo-1-(pyridin-3-yl)-2,3-dihydro-1H-pyrrolo[2,3-b]pyridin-4-yl)-2-(trifluoromethyl)benzamide] gave an EC50 of 0.057 µM.
For `Cc1ncc(-c2cccc3c2C(C)(C)C(=O)N3c2cnccn2)cc1C(=O)Nc1ccc(F)cc1` [Example 15, 5-(3,3-dimethyl-2-oxo-1-(pyrazin-2-yl)indolin-4-yl)-N-(4-fluorophenyl)-2-methylnicotinamide] the value was 0.522 µM; for `CC1(C)C(=O)N(c2ncccn2)c2cccc(-c3cc(C(=O)Nc4ccc(F)cc4)c(C(F)(F)F)cn3)c21` [Example 25, 2-(3,3-dimethyl-2-oxo-1-(pyrimidin-2-yl)indolin-4-yl)-N-(4-fluorophenyl)-5-(trifluoromethyl)isonicotinamide], 0.039 µM; for `CC1(C)C(=O)N(c2ncccn2)c2cccc(-c3ccc(C(F)(F)F)c(C(=O)Nc4ccc(F)c(F)c4)c3)c21` [Example 30, N-(3,4-difluorophenyl)-5-(3,3-dimethyl-2-oxo-1-(pyrimidin-2-yl)indolin-4-yl)-2-(trifluoromethyl)benzamide], 0.024 µM.
For `CC1(C)C(=O)N(c2ncccn2)c2cccc(-c3ccc(OC(F)(F)F)c(C(=O)Nc4ccc(F)cc4)c3)c21` [Example 24, 5-(3,3-dimethyl-2-oxo-1-(pyrimidin-2-yl)indolin-4-yl)-N-(4-fluorophenyl)-2-(trifluoromethoxy)benzamide] the value was 0.048 µM.
